Several values for one entry are separate records, joined by “and”; a condition that tells them apart may be missing. Identical values can stand only once. Toxic doses and inconclusive results are not listed. Rule as the data show it: active = T/C of 150% or more; inactive = T/C below 125%.
Test system: L1210 leukemia ip in BDF1 mice, survival T/C
Assay: NCI In Vivo Anticancer Drug Screen. Data for tumor model L1210 Leukemia (intraperitoneal) in B6D2F1 (BDF1) mice
Settings: endpoint: mean survival time, higher = longer survival
Method in brief: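 Antitumor effect is assessed in tumor-bearing animals. Survival in the compound arm is compared with a vehicle-dosed control arm and expressed as their quotient.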

[1] = dose: 50.0 mg/kg/injection, schedule: Q01DX001 (ip), vehicle: saline
[2] = dose: 100.0 mg/kg/injection, schedule: Q04DX003 (ip), vehicle: saline
[3] = dose: 200.0 mg/kg/injection, schedule: Q04DX003 (ip), vehicle: saline
[4] = dose: 400.0 mg/kg/injection, schedule: Q04DX003 (ip), vehicle: saline
[5] = dose: 100.0 mg/kg/injection, schedule: Q04DX002 (ip), vehicle: saline with Tween-80
[6] = dose: 200.0 mg/kg/injection, schedule: Q04DX002 (ip), vehicle: saline with Tween-80
[7] = dose: 400.0 mg/kg/injection, schedule: Q04DX002 (ip), vehicle: saline with Tween-80
[8] = dose: 100.0 mg/kg/injection, schedule: Q01DX009 (ip), vehicle: Klucel (hydroxypropylcellulose) (HPC)
[9] = dose: 200.0 mg/kg/injection, schedule: Q01DX009 (ip), vehicle: Klucel (hydroxypropylcellulose) (HPC)
[10] = dose: 400.0 mg/kg/injection, schedule: Q01DX009 (ip), vehicle: Klucel (hydroxypropylcellulose) (HPC)
[11] = dose: 100.0 mg/kg/injection, schedule: Q04DX003 (ip), vehicle: Klucel (hydroxypropylcellulose) (HPC)
[12] = dose: 200.0 mg/kg/injection, schedule: Q04DX003 (ip), vehicle: Klucel (hydroxypropylcellulose) (HPC)
[13] = dose: 400.0 mg/kg/injection, schedule: Q04DX003 (ip), vehicle: Klucel (hydroxypropylcellulose) (HPC)
[14] = dose: 100.0 mg/kg/injection, schedule: Q01DX009 (ip), vehicle: saline

Measured: T/C

CC(C)=CC[P+](c1ccccc1)(c1ccccc1)c1ccccc1
inactive: dose: 3.13 mg/kg/injection, schedule: Q01DX009 (ip), vehicle: saline 111 % of control | dose: 6.25 mg/kg/injection, schedule: Q01DX009 (ip), vehicle: saline 106 % of control | dose: 12.5 mg/kg/injection, schedule: Q01DX009 (ip), vehicle: saline 100 % of control and 106 % of control | dose: 25.0 mg/kg/injection, schedule: Q01DX001 (ip), vehicle: saline 102 % of control | dose: 25.0 mg/kg/injection, schedule: Q01DX009 (ip), vehicle: saline 98 % of control | [1] 90 % of control | dose: 50.0 mg/kg/injection, schedule: Q01DX009 (ip), vehicle: saline 98 % of control and 90 % of control

O=[N+]([O-])c1ncc[nH]1
inactive: [1] 96 % of control | dose: 100.0 mg/kg/injection, schedule: Q01DX001 (ip), vehicle: saline 98 % of control | dose: 200.0 mg/kg/injection, schedule: Q01DX001 (ip), vehicle: saline 102 % of control

CSC(=S)NNC(=O)C1CCCCC1
inactive: [2] 106 % of control | [3] 98 % of control | [4] 104 % of control

Cc1cccc(NC(=S)NC(=O)CCc2ccccc2)c1C
inactive: dose: 25.0 mg/kg/injection, schedule: Q01DX009 (ip), vehicle: saline with Tween-80 94 % of control and 88 % of control | dose: 50.0 mg/kg/injection, schedule: Q01DX009 (ip), vehicle: saline with Tween-80 94 % of control and 88 % of control | dose: 100.0 mg/kg/injection, schedule: Q01DX001 (ip), vehicle: saline with Tween-80 95 % of control | [5] 95 % of control and 90 % of control | dose: 100.0 mg/kg/injection, schedule: Q04DX003 (ip), vehicle: saline with Tween-80 86 % of control | dose: 200.0 mg/kg/injection, schedule: Q01DX001 (ip), vehicle: saline with Tween-80 98 % of control | [6] 93 % of control | dose: 200.0 mg/kg/injection, schedule: Q04DX003 (ip), vehicle: saline with Tween-80 89 % of control | dose: 400.0 mg/kg/injection, schedule: Q01DX001 (ip), vehicle: saline with Tween-80 97 % of control | [7] 93 % of control and 102 % of control | dose: 400.0 mg/kg/injection, schedule: Q04DX003 (ip), vehicle: saline with Tween-80 86 % of control

O=C(Nc1ccccc1)OCC(OC(=O)Nc1ccccc1)C(COC(=O)Nc1ccccc1)OC(=O)Nc1ccccc1 (stereo unspecified)
inactive: dose: 25.0 mg/kg/injection, schedule: Q04DX002 (ip), vehicle: saline with Tween-80 100 % of control | dose: 50.0 mg/kg/injection, schedule: Q04DX002 (ip), vehicle: saline with Tween-80 100 % of control | [5] 92 % of control | [7] 88 % of control

Cc1ccc(Cl)cc1NS(=O)(=O)c1cc(Cl)c(Cl)cc1Cl
inactive: [8] 93 % of control | [9] 89 % of control | [10] 94 % of control

O=C(Nc1ccc([N+](=O)[O-])cc1Cl)Oc1ccc2ccccc2c1
inactive: [8] 92 % of control | [11] 100 % of control | [9] 87 % of control | [12] 97 % of control | [13] 100 % of control

Cc1cccc(NC(=O)Nc2cccc(Cl)c2)c1C
inactive: [8] 91 % of control | [11] 90 % of control | [9] 100 % of control | [12] 90 % of control | [10] 93 % of control | [13] 89 % of control

Cc1ccc(S(=O)(=O)NC(c2ccccc2)(c2ccccc2)c2ccc([N+](=O)[O-])cc2)cc1
inactive: [14] 100 % of control | dose: 200.0 mg/kg/injection, schedule: Q01DX009 (ip), vehicle: saline 103 % of control | dose: 400.0 mg/kg/injection, schedule: Q01DX009 (ip), vehicle: saline 101 % of control

CN1CCN(C(=O)Nc2ccc(N=Nc3ccccc3)cc2)CC1
inactive: [12] 87 % of control

Cc1cccc(NC(=S)NCCc2ccccn2)c1
inactive: [5] 97 % of control | [6] 97 % of control

Oc1ccccc1/C=N/n1cnnc1
inactive: [11] 98 % of control | [12] 100 % of control | [13] 100 % of control

CC(=O)Nc1ccccc1C(=O)C(N)=O
inactive: dose: 50.0 mg/kg/injection, schedule: Q01DX009 (ip), vehicle: Klucel (hydroxypropylcellulose) (HPC) 100 % of control | [8] 94 % of control | [11] 96 % of control | [9] 96 % of control | [12] 95 % of control | [13] 98 % of control

Cc1c[n+]2c3ccccc3c3ccccc3c2s1
inactive: dose: 5.0 mg/kg/injection, schedule: Q01DX009 (ip), vehicle: Klucel (hydroxypropylcellulose) (HPC) 114 % of control | dose: 10.0 mg/kg/injection, schedule: Q01DX001 (ip), vehicle: saline 105 % of control | dose: 10.0 mg/kg/injection, schedule: Q01DX009 (ip), vehicle: Klucel (hydroxypropylcellulose) (HPC) 118 % of control | dose: 10.0 mg/kg/injection, schedule: Q04DX003 (ip), vehicle: Klucel (hydroxypropylcellulose) (HPC) 94 % of control | dose: 20.0 mg/kg/injection, schedule: Q01DX001 (ip), vehicle: saline 100 % of control | dose: 20.0 mg/kg/injection, schedule: Q01DX009 (ip), vehicle: Klucel (hydroxypropylcellulose) (HPC) 123 % of control | dose: 20.0 mg/kg/injection, schedule: Q04DX003 (ip), vehicle: Klucel (hydroxypropylcellulose) (HPC) 97 % of control | dose: 40.0 mg/kg/injection, schedule: Q01DX001 (ip), vehicle: saline 98 % of control

Br/C=C\c1ccccc1
inactive: dose: 50.0 mg/kg/injection, schedule: Q01DX009 (ip), vehicle: acetone 86 % of control | [14] 107 % of control | [2] 97 % of control | dose: 200.0 mg/kg/injection, schedule: Q01DX009 (ip), vehicle: acetone 95 % of control | [3] 94 % of control | [4] 98 % of control

COC1=C2CCCCC2=[N+]2CCc3ccccc3C2C1 (stereo unspecified)
inactive: dose: 100.0 mg/kg/injection, schedule: Q01DX001 (ip), vehicle: Klucel (hydroxypropylcellulose) (HPC) 93 % of control

O=P(NC(=S)OCCN1CC1)(NC(=S)OCCN1CC1)NC(=S)OCCN1CC1
inactive: dose: 100.0 mg/kg/injection, schedule: Q01DX001 (ip), vehicle: carboxymethylcellulose (CMC) 107 % of control | dose: 200.0 mg/kg/injection, schedule: Q01DX001 (ip), vehicle: carboxymethylcellulose (CMC) 96 % of control

CCCCOC(=O)/C=C\C(=O)NC(N)=O
inactive: dose: 31.0 mg/kg/injection, schedule: Q01DX Z (ip), vehicle: methylcellulose (MC) 98 % of control | dose: 51.0 mg/kg/injection, schedule: Q01DX Z (ip), vehicle: methylcellulose (MC) 101 % of control
